Data on two molecules can be found in PMC5491650, “Structure-Activity Relationships of Pentacyclic Triterpenoids as Potent and Selective Inhibitors against Human Carboxylesterase 1” (Frontiers in Pharmacology, 2017).

Common to all, as to assay type: biochemical
Test [1] concerns the target T1, hCE1 (Homo sapiens, UniProt P23141).
T1 sequence (P23141 18-567): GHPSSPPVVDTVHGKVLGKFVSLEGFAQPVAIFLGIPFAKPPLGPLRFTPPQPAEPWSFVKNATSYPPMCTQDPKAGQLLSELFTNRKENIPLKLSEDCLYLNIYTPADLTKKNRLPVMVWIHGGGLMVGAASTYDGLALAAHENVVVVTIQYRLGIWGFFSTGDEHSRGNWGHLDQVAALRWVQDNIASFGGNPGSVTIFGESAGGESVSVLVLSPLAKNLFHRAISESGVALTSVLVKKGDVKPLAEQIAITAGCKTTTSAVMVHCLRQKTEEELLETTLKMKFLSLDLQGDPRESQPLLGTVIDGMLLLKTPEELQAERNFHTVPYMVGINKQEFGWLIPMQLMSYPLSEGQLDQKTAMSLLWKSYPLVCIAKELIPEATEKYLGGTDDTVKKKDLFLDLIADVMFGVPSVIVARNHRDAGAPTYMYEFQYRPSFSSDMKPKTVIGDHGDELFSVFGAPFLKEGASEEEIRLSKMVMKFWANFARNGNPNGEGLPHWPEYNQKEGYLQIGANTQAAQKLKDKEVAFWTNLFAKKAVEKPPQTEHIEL
The test is described as follows: Inhibition of hCE1-mediated BMBT hydrolysis in HLMs. Further details: tissue Celsis (Shanghai, China); host or cells: human liver microsomes (HLM). Here is the method: The half maximal inhibitory concentration (IC50) of each compound was determined using various inhibitor concentrations under the same incubation conditions as mentioned above. The inhibition constant (Ki) values of compound 22 against hCE1 in HLM were determined using varied concentrations of DME in the presence or absence of each inhibitor. […] Dixon plot and Lineweaver-Burk plots were used to fit the data. The inhibition kinetic type was evaluated by determining the intersection point in the Dixon and Lineweaver-Burk plots. The second plots based on the slopes from Lineweaver-Burk plot vs. inhibitor concentrations were utilized to calculate each the inhibition constant (Ki) value (Wang et al., [2015]; Zhu et al., [2015], [2016]).
To this end, another optical probe substrate (BMBT) for hCE1 was used for further investigation on the inhibition behaviors of compound 22 (Liu et al., [2014]).

Test [2] deals with T1, hCE1. Kind of test: hCE1 inhibition assay, DME hydrolysis in human liver microsomes.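 On all read-outs here: carboxylesterase inhibition read out as probe hydrolysis, with DME serving as hCE1 substrate and DDAB as hCE2 substrate, in DMSO below 2% (V/V).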 Further details: tissue Celsis (Shanghai, China); host or cells: human liver microsomes (HLM). As to conditions: for selectivity over hCE2: hCE1 versus hCE2, values of the text; for Observed Log(IC50_hCE1): log of the experimental IC50 in μM, used for 3D-QSAR. (In general: Liver microsomes are a subcellular fraction often used to study metabolism.)
Experimental: (§1) All fluorescence-based assays were performed on Synergy H^1 Hybrid Multi-Mode Microplate Reader (BioTek, USA).
(§2) The inhibitory effects toward CEs were assayed using DME and DDAB as the specific probe substrates for hCE1 and hCE2, respectively. […] Control incubations without BNPP were also performed. After incubation, ice-cold acetonitrile (equal volume of incubation mixture, 200 μL) was added to terminate the reaction. The mixture was then centrifuged at 20,000 g for 20 min at 4°C. All these compounds dissolved in DMSO, and the final concentration of DMSO was <2% (V/V). Aliquots of the supernatant were then taken for further microplate reader analyses. […] First, each of the potential esterase inhibitors was pre-incubated with HLM at 37°C for 10 min with shaking in microplate reader. Then DME was added to start the reaction. After incubation at 37°C for 10 min in a shaking bath, LDR (equal volume of incubation mixture, 50 μL) was added to terminate the reaction, and luminescence measurements were conducted as described above.

Another test addresses T2, hCE2 (Homo sapiens, UniProt O00748).
T2 construct: tissue Celsis (Shanghai, China); host or cells: human liver microsomes (HLM)
T2 sequence (O00748 27-559): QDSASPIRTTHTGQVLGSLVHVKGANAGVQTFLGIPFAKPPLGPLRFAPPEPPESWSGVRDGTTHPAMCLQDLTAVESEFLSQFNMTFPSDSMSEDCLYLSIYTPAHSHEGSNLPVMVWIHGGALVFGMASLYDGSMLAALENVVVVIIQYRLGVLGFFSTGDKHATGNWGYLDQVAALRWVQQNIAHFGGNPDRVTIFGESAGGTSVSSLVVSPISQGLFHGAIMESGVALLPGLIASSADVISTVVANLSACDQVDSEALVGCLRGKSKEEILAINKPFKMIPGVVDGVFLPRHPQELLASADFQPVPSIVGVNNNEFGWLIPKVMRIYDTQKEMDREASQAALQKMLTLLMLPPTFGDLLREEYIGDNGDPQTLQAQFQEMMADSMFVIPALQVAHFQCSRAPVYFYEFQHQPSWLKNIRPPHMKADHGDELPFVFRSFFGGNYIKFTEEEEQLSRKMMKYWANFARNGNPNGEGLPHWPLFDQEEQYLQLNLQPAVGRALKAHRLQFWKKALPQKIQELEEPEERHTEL
The test is described as follows: hCE2 inhibition assay, DDAB hydrolysis in human liver microsomes. As to conditions: DDAB as probe substrate, HLM; averages of at least three experiments; read-out: IC50 (hCE2).

For test [3], the target named is T1, hCE1. The test is described as follows: Inhibition of DME hydrolysis by recombinant hCE1. On the procedure: To further investigate the inhibitory behaviors of compound 22 on the catalytic activity of hCE1, the inhibition behaviors of this compound against hCE1 were performed. […] In addition, the inhibitory tendency and potency of compound 22 against DME-hydrolysis in both HLMs and hCE1 were much closed (Figure S1).

Entries after “also recorded” stand apart in the source; their conditions may differ.

Experimental for hCE2: as §1, §2

For the molecule `CC1CCC2(C(=O)O)CCC3(C)C(=CCC4C5(C)CCC(OC(=O)CCC(=O)O)C(C)(C)C5CCC43C)C2C1C` (stereo not drawn) [Compound 22, 3β-O-(β-carboxypropionyl)-urs-12-en-28-oic acid], the IC50 (as a rule, the concentration at which inhibition is half-maximal) was 30.3 nM on hCE1 [1]; 12 nM at hCE1 [2] (IC50 (hCE1), DME as probe substrate, HLM, averages of at least three experiments); 12.6 nM against hCE1 [2] (IC50 against hCE1, DME hydrolysis in HLM); 83000 nM on hCE2; 9.2 nM at hCE1 [3]. The results for the Ki at hCE1 [1] and at hCE1 [2] were 35.5 nM and 12.6 nM, respectively. Moreover, the “inhibition type against hCE1-mediated BMBT hydrolysis” value at hCE1 [1] (HLMs, Lineweaver-Burk plot) is on record as “non-competitive inhibitor”. For the same molecule, the “inhibition type against hCE1-mediated DME hydrolysis” value against hCE1 [2] (HLMs, Lineweaver-Burk plots) was “competitive inhibitor; also recorded: competitive inhibition”. The Selectivity at hCE1 [2] (calculated from IC50 (hCE2)/IC50 (hCE1) as printed) is 6919.2. On hCE1 [2], the “selectivity over hCE2” value was 6,919 fold. On hCE1 [2], the “Observed Log(IC50_hCE1)” value is -1.921 μM.

Take `CC1(C)CCC2(C(=O)O)CCC3(C)C(=CCC4C5(C)CCC(OC(=O)CCC(=O)O)C(C)(C)C5CCC43C)C2C1` (stereo not drawn) [Compound 20, 3β-O-(β-carboxypropionyl)-olean-12-en-28-oic acid]: the IC50 was determined as 17 nM on hCE1 [2] (DME as probe substrate, HLM, averages of at least three experiments, read-out: IC50 (hCE1)) and 56000 nM on hCE2. At hCE1 [2], the “selectivity over hCE2” value is recorded as 3296 fold. Moreover, the “Observed Log(IC50_hCE1)” value at hCE1 [2] was -1.77 μM.
